Like-named read-outs stand apart in the source and are kept apart here.
Experiments:
Murine RGC5(661W) cells = experiment: RIPK1-dependent apoptosis (RDA) of RGC5 cells induced by TNFα plus 5Z-7-Oxozeaenol; format: cell-based; settings: Mus musculus, 21 hours
Description: Murine RGC5(661W) cells were seeded in 96-well plates (4000 cells per well). Different concentrations of the compounds were added one hour prior to TNFα treatment, followed by the addition of 0.5 ng/ml TNFα plus 0.5 μM 5Z-7-Oxozeaenol to induce RIPK1-dependent apoptosis (RDA). After incubation for 21 hours, cell viability was measured by CellTiter-Glo Luminescent Cell Viability Assay.

GST-TRADD = biological target: T1, GST-TRADD (Homo sapiens, UniProt Q15628); experiment: Thermal shift assay with GST-TRADD; format: binding; settings: GST-TRADD 50 μM, compound 250 μM
T1 construct: cDNA encoding GST-tagged hTRADD (Full length or aa180-312); made in house; host or cells: HEK293T (pEBG plasmid)
Source text: Thermal unfolding of GST-TRADD is monitored using SYPRO Orange. Data were collected in the presence of ICCB-19 and Apt-1, leading to a rightward shift in the unfolding transition. The apparent melting temperature (Tm) is the peak in the derivative of the unfolding curve (dF/dT), which is used as an indicator of thermal stability.
Full-length cDNAs for mouse/human TRADD were PCR-amplified from the plasmid library and cloned into pcDNA3.1 using Phanta Max Super-Fidelity DNA Polymerase (Vazyme Biotech Co., Ltd) with appropriate tags. Mutant hTRADD were generated using MutExpress II mutagenesis kit (Vazyme Biotech Co., Ltd). […]
To determine stability, purified proteins were made to a final concentration of 1 μg/l. […] The reaction was run from 25C, ramping up in increments of 0.05° C./s to a final temperature of 95C with fluorescence detection throughout the experiment to generate a dataset. Melting temperature of the protein (Tm) was determined by performing non-linear fitting of the dataset to a Boltzmann Sigmoidal curve in GraphPad Prism with the following equation: Y=Bottom+(Top-Bottom)/[1+exp(Tm-X/Slope)], where Y=fluorescence emission in arbitrary units; X=temperature; Bottom=baseline fluorescence at low temperature; Top=maximal fluorescence at top of the dataset; Slope=describes the steepness of the curve, with larger values denoting shallower curves.

GST-TRADD-C = biological target: T2, GST-TRADD-C (Homo sapiens, UniProt Q15628); experiment: Thermal shift assay with GST-TRADD-C; format: binding; settings: GST-TRADD-C 50 μM, compound 250 μM
T2 construct: cDNA encoding GST-tagged hTRADD (Full length or aa180-312); made in house; host or cells: mammalian cells (pEBG plasmid)
Description: To determine stability, purified proteins were made to a final concentration of […]. SYPRO Orange dye was added to the protein to make a final concentration of 2×. Compounds were added in the mix with a final concentration of 250 μM or as indicated and incubated at 4C for 1 h. The experiments were performed in 384-well plates specific for real-time PCR instrument with a total volume of 20 μl/well. The assay plate was covered with a sheet of optically clear adhesive to seal each well. The assay plate was centrifuged at 800×g for 2 min at 25C to collect solutions in the bottom of the well and remove bubbles. The assay plate was placed into the Applied Biosystems QuantStudio 6 Real-Time PCR System. The reaction was run from 25C, ramping up in increments of 0.05° C./s to a final temperature of 95C with fluorescence detection throughout the experiment to generate a dataset. Melting temperature of the protein (Tm) was determined by performing non-linear fitting of the dataset to a Boltzmann Sigmoidal curve in GraphPad Prism with the following equation: Y=Bottom+(Top-Bottom)/[1+exp(Tm-X/Slope)], where Y=fluorescence emission in arbitrary units; X=temperature; Bottom=baseline fluorescence at low temperature; Top=maximal fluorescence at top of the dataset; Slope=describes the steepness of the curve, with larger values denoting shallower curves.

TRADD-N and TRADD-C = biological target: T3, TRADD-N and TRADD-C (Homo sapiens, UniProt Q15628); experiment: NanoBiT protein-protein interaction assay TRADD-N / TRADD-C; format: cell-based; settings: 4 h
T3 construct: expression constructs encoding Flag-TRADD-N(1-179) and HA-TRADD-C(180-312); expressed in transfected cells; host or cells: HEK293T
Description: Constructs were made encoding LgBiT and SmBiT fused to the N and C termini of TRADD-N and TRADD-C, respectively. HEK293T cells were transfected with these two plasmids for 24 h and then treated with indicated compounds for 4 h. The luminescence indicating the interaction of TRADD-N and TRADD-C was measured using Nano-Glo Live Cell Reagent. Mean ±s.d. from quintuplicates (n=5).
The Nano-Glo Live Cell assay kit (Promega) was used as follows: HEK293T cells were seeded at 7.5×10^3 cells per well in a white, clear-bottom 96-well plate 12 h before transfection (10 ng LgBiT-fused construct and 10 ng SmBiT-fused construct). After 24 h incubation, medium was removed and replaced with 100 μl Opti-MEM medium for 1 h at 37C. The Nano-Glo reagent was prepared as per manufacturer's instructions and added to each well immediately before the luminescence reading was taken. Luminescence was measured at 1 min intervals for 10 min on a plate reader and reported as relative light units (RLU). For quantitative comparison of LgBiT-SmBiT interactions, the peak values at the 2-3 min time point were used. Concentration of compounds used in NanoBiT assay: 10 μM (Apt-1, ICCB-19 or ICCB-19i).

[1] = Table 3, 0.5 ng/ml TNFα plus 0.5 μM 5Z-7-Oxozeaenol, read-out: RGC5 T/5z7 IC50/μM

T2 sequence (Q15628 180-312): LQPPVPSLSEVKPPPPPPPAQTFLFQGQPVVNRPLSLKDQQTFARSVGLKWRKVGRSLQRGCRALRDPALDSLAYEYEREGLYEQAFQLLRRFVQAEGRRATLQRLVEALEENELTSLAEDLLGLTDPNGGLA
T3 sequence (Q15628 1-179): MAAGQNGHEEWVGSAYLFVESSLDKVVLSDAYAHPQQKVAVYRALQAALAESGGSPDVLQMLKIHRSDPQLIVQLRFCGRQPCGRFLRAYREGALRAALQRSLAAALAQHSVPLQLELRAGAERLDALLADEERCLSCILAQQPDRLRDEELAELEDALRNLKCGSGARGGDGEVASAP
T1 sequence (Q15628 whole entry, the tested form may be a part): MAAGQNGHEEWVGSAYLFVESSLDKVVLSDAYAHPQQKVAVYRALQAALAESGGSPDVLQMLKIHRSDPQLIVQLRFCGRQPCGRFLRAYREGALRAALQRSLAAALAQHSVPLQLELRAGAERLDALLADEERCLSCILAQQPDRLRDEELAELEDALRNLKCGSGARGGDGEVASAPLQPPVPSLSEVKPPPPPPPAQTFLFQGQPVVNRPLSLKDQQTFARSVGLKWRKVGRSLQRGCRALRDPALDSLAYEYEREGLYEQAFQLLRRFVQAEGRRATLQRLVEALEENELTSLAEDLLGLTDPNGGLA

IC50 (Murine RGC5(661W) cells; Table 2, 0.5 ng/ml TNFα plus 0.5 μM 5Z-7-Oxozeaenol, read-out: RGC5 T/5z7 IC50)	SMILES	IC50 (Murine RGC5(661W) cells; [1])	increase of Tm of GST-TRADD (GST-TRADD)	binding to GST-TRADD-C (GST-TRADD-C)	NanoBit interaction signal between LgBiT-TRADD-N and TRADD-C-SmBiT (TRADD-N and TRADD-C)
0.18 µM	O=C(CSC1=NCCN1)NC1CCCCCC1 [ICCB-19]	2.01 µM	3.2 °C	does not bind	dose-dependently reduced
	CN1CCN=C1SC(C(=O)NC1CCCCCC1)c1ccccc1 (stereo not drawn) [Compound 30]	1.28 µM	3.7 °C	does not bind	dose-dependently reduced
